Target: T1, firefly luciferase enzyme (FLuc) (Photinus pyralis, UniProt P08659)
T1 construct: commercial purified enzyme (Promega E1701)
Assay: bioluminescence read-out, 384-well plate
Type: biochemical
Conditions: 10 µM ATP with 10 µM D-luciferin, 5 mM MgSO4; ATP and Mg needed for signal

T1 sequence (P08659 whole entry): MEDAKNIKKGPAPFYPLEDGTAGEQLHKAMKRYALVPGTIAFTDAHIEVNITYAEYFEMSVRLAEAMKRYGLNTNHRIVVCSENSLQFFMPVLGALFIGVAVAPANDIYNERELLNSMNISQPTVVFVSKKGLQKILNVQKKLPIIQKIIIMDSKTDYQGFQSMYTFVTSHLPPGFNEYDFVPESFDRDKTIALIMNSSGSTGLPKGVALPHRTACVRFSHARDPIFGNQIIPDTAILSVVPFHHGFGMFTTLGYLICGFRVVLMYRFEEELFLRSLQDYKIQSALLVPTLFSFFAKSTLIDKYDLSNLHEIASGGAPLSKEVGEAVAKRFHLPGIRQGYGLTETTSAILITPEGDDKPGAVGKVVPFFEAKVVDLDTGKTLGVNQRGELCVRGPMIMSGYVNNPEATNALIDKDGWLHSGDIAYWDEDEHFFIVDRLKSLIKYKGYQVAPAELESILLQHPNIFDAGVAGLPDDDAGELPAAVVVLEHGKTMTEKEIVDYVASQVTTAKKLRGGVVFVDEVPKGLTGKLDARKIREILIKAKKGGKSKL

Nc1ncnc2c1ncn2[C@@H]1O[C@H](COP(=O)(O)OP(=O)(O)OP(=O)(O)O)[C@@H](O)[C@H]1O [ATP]
bioluminescence read-out, 384-well plate: both ATP and Mg still need to be present in the FLuc reaction buffer
